As usually defined, the EC50 is the concentration that produces a half-maximal response.

The values that follow come from article PMC10681007, “Targeted Degradation of XIAP is Sufficient and Specific to Induce Apoptosis in MYCN-overexpressing High-risk Neuroblastoma” (Cancer Research Communications, 2023).

Where two headings read alike, the source gives them in different places. Starred links: 1 amine or outer side, 2 acyl side, 3 side chain; linkers in the order of their positions; H or OH if unused. Positions of bridges follow the written chain, without caps; N, C: chain ends. Non-standard residues stand in square brackets, D forms with d. Residues, ends and D or L forms follow the SMILES beside them. Chains are numbered I, II in the order given. Hexamethylenediamine = C(CCCN[*:2])CCN[*:1]; Dip = N[C@H](C(=O)O)C(c1ccccc1)c1ccccc1; Chg = N[C@H](C(=O)O)C1CCCCC1; NMeA = CN[C@@H](C)C(=O)O

For series [1], the system named is HS5 cells. The series can be described thus: Apoptosis (cleaved PARP/caspase-3, Caspase-Glo 3/7). The class given is cell-based. The note with it: 10 µmol/L. The procedure:
(§1) The determination of caspase-3/7 levels as an indication for apoptosis activity was performed using a Caspase-Glo 3/7 assay kit from Promega according to manufacturer's instructions. Cells were seeded at 1 × 10^4 cells per well and treated with 10 µmol/L of IAP antagonists for various indicated timings, followed by bioluminescence measurement using luminescent plate reader, Tecan Infinite200 Pro. The activity of apoptosis was also measured by flow cytometry using the Dead Cell Apoptosis Kit with Annexin V FITC and PI (Thermo Fisher Scientific) according to manufacturer's instructions. Cells harvested from lentiviral infection were subjected to Annexin V (2.5 µL) and PI (40 ng/mL, 0.5 µL) staining, followed by flow cytometric analysis using BD LSRFortessa cell analyzer with excitation/emission spectra of 494 nm/518 nm for FITC and 535 nm/617 nm for PI.
(§2) FIGURE 2 Specific loss of XIAP expression, not c-IAP1, is required for mediating apoptosis in high-risk neuroblastoma cells. A, Summary of IAP antagonists’ efficacy in killing neuroblastoma cells. […] C, Graphical representation showing the fold change of caspase-3/7 activity relative to vehicle controls after treatment with 10 µmol/L of either A4, B3, or BV6 at indicated timings (data were expressed as mean ± SD of three independent experiments conducted in duplicates; *, P < 0.05). […]

Series [2] deals with BE(2)-C and KELLY cells. Described as above. In kind it is cell-based, Human. The note with it: 10 µmol/L. The procedure: as §1, §2
Series [3] deals with T1, XIAP (NanoLuc-XIAP) (Homo sapiens, UniProt P98170).
T1 construct: host or cells: BE(2)-C and KELLY human neuroblastoma cells
T1 sequence (P98170 whole entry): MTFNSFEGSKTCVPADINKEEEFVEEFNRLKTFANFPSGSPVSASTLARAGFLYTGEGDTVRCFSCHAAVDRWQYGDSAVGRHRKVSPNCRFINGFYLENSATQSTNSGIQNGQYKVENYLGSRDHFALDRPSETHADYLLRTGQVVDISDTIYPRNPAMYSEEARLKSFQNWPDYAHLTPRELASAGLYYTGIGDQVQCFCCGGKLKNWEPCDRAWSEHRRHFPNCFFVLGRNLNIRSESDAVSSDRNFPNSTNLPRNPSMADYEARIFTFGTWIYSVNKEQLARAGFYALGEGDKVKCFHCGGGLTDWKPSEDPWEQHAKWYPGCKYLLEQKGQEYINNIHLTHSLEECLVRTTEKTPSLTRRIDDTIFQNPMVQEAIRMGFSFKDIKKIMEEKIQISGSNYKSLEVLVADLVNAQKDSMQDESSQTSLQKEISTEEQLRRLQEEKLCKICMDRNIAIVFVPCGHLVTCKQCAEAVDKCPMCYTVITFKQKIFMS
Briefly: NanoBRET XIAP target engagement assay. In kind it is binding. As to conditions: NanoBRET tracer displacement, read-out: apparent intracellular affinity to XIAP (EC50). The procedure: To better understand the mechanisms by which these compounds target XIAP in high-risk neuroblastoma, binding interactions between the antagonists and XIAP were first determined in BE(2)-C and KELLY cells using a NanoBRET quantitative target engagement assay. […] As the BRET signal was not completely abolished even at saturating A4 concentrations, NMR was conducted to further examine the binding interaction between A4 and XIAP (Supplementary Fig. S2A and S2B).
FIGURE 3 Binding and degradation of XIAP by A4 is necessary for targeting high-risk neuroblastoma cells. […] BRET signal was measured at 2 hours after treatment using a Tecan Infinite 200 Pro equipped with NanoBRET dual-filters (donor 460 nm and acceptor 618 nm) and determined via the formula (BRET ratio = values at 618 nm/values at 460 nm). […] Cells were treated with increasing dose of A4 or BV6 and luminescence was measured continuously in real time for 2 hours. Luminescence values were normalized to DMSO vehicle control and degradation profiles were generated using GraphPad Prism. Values were expressed as mean ± SD of three independent experiments conducted in duplicates. […] BRET signal was measured every 5 minutes for 6 hours after treatment using a Tecan equipped with NanoBRET dual-filters (donor 460 nm and acceptor 618 nm) and determined via the formula (BRET ratio = values at 618 nm/values at 460 nm). […]

Consider `CN[C@@H](C)C(=O)N[C@H](C(=O)N1CCC[C@H]1C(=O)N[C@H](C(=O)NCCCCCCNC(=O)[C@@H](NC(=O)[C@@H]1CCCN1C(=O)[C@@H](NC(=O)[C@H](C)NC)C1CCCCC1)C(c1ccccc1)c1ccccc1)C(c1ccccc1)c1ccccc1)C1CCCCC1` [BV6] (I: H-[NMeA][Chg]P[Dip] / II: H-[NMeA][Chg]P[Dip]; linker I:C-II:C via Hexamethylenediamine), for which, in series [1], the apoptosis entry was “significant apoptosis”. In addition, in series [2], the “apoptosis (PARP and caspase-3 cleavage, caspase-3/7 activity)” value is reported as “minimal or no apoptosis”. The EC50 was 210 nM in series [3] (BE(2)-C cells) and 300 nM in series [3] (KELLY cells).
